Measurements published in the supplement of paper PMC7017272.
± gives the standard deviation of the averaged measurements.

What was measured:
Conditions in all cases: treatment time: 3 days
UT-SCC-24A [1] = assay: maximal % inhibition of viability relative to DMSO; higher = stronger effect
Protocol: (§1)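 HNSCC cell lines (500 cells/well, 384-well) were cultured on plastic, on top of (2D) or embedded (3D) in Matrigel or human leiomyoma matrix Myogel (500 ug/mL; Myogel 3D mixed with rat collagen I). Cells were treated for 3 days with 5 ten-fold concentrations of each drug, and viability was read by CellTiter-Glo. Viability was normalised to DMSO (0% inhibition) and 100 uM benzethonium chloride (100% inhibition) controls and fitted with the FIMM DSRT pipeline to give IC50 (nM), maximal % inhibition and the drug sensitivity score (DSS). Suffixes _1/_2/_3 on drug names are replicates.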

UT-SCC-106A = assay: drug sensitivity score (DSS); higher = more sensitive; extreme values may be limits of the assay
Procedure, shortened: (§2)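 The FIMM pipeline was used to fit percent-inhibition dose–response curves, giving IC50, maximal inhibition and drug sensitivity score. Input data were CellTiter-Glo 2.0 luminescence readings, normalised to vehicle (0.1% DMSO) and cell-killing control wells, from HPV-negative HNSCC cell lines seeded at 500 cells/well in 384-well plates. Cells sat on plastic, on Matrigel or Myogel coatings (500 µg/mL), or within Matrigel or Myogel plus rat collagen I, and received compounds at five 10-fold concentrations for 3 days.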

UT-SCC-14 = assay: as above
Procedure, shortened: as §2

UT-SCC-24B = assay: as above
Procedure, shortened: as §2

UT-SCC-28 [2] = assay: as above
Procedure, shortened: as §2

UT-SCC-40 = assay: as above
Procedure, shortened: as §2

UT-SCC-42A [3] = assay: as above
Procedure, shortened: as §2

UT-SCC-42B = assay: as above
Procedure, shortened: as §2

UT-SCC-44 = assay: as above
Procedure, shortened: as §2

UT-SCC-73 = assay: as above
Procedure, shortened: as §2

UT-SCC-81 [4] = assay: as above
Procedure, shortened: as §2

UT-SCC-8 = assay: as above
Procedure, shortened: as §2

UT-SCC-28 [5] = assay: relative IC50 (midpoint of the fitted curve; maximal inhibition may be below 50%); higher = less potent
Procedure, shortened: as §2

UT-SCC-42A [6] = assay: as above
Procedure, shortened: as §2

UT-SCC-81 [7] = assay: as above
Procedure, shortened: as §2

UT-SCC-24A [8] = assay: relative IC50 (midpoint of the fitted curve; maximal inhibition may be below 50%); higher = less potent
Protocol: as §1

[9] = culture condition: embedded in Matrigel
[10] = culture condition: embedded in Myogel + collagen I
[11] = culture condition: on top of Matrigel
[12] = culture condition: on top of Myogel
[13] = culture condition: plastic 2D (no matrix)

relative IC50 (UT-SCC-28 [5]; [9]): 2.99 nM
relative IC50 (UT-SCC-28 [5]; [10]): 12.8 nM
relative IC50 (UT-SCC-28 [5]; [11]): 5.19 nM
relative IC50 (UT-SCC-28 [5]; [13]): 5.26 nM
relative IC50 (UT-SCC-42A [6]; [9]): 15.6 nM
relative IC50 (UT-SCC-42A [6]; [10]): 16.6 nM
relative IC50 (UT-SCC-42A [6]; [11]): 13.2 nM
relative IC50 (UT-SCC-42A [6]; [12]): 16.4 nM
relative IC50 (UT-SCC-42A [6]; [13]): 11.5 nM
relative IC50 (UT-SCC-81 [7]; [9]): 4 nM
relative IC50 (UT-SCC-81 [7]; [10]): 8.83 nM
relative IC50 (UT-SCC-81 [7]; [11]): 5.22 nM
relative IC50 (UT-SCC-81 [7]; [12]): 9.49 nM
relative IC50 (UT-SCC-81 [7]; [13]): 8.77 nM
relative IC50 (UT-SCC-24A [8]; [9]): 4.17 nM
relative IC50 (UT-SCC-24A [8]; [10]): 7 nM
relative IC50 (UT-SCC-24A [8]; [11]): 5.02 nM
relative IC50 (UT-SCC-24A [8]; [12]): 10.1 nM
relative IC50 (UT-SCC-24A [8]; [13]): 5.44 nM
SMILES: COc1ncc(-c2ccc3nccc(-c4ccnnc4)c3c2)cc1NS(=O)(=O)c1ccc(F)cc1F [Omipalisib]
maximal % inhibition of viability (UT-SCC-24A [1]; [9]): 95.2 ± 1.4%
maximal % inhibition of viability (UT-SCC-24A [1]; [10]): 89.2 ± 1.7%
maximal % inhibition of viability (UT-SCC-24A [1]; [11]): 92 ± 1.5%
maximal % inhibition of viability (UT-SCC-24A [1]; [12]): 85.8 ± 0.99%
maximal % inhibition of viability (UT-SCC-24A [1]; [13]): 91.6 ± 0.95%
drug sensitivity score (UT-SCC-106A; [9]): 22.8 ± 0.99 DSS
drug sensitivity score (UT-SCC-106A; [10]): 15.4 ± 0.89 DSS
drug sensitivity score (UT-SCC-106A; [11]): 22.33 ± 0.15 DSS
drug sensitivity score (UT-SCC-106A; [12]): 15 ± 1.2 DSS
drug sensitivity score (UT-SCC-106A; [13]): 21.9 ± 0.46 DSS
drug sensitivity score (UT-SCC-14; [9]): 25.2 ± 1.2 DSS
drug sensitivity score (UT-SCC-14; [10]): 20.9 ± 3.1 DSS
drug sensitivity score (UT-SCC-14; [11]): 23.8 ± 0.57 DSS
drug sensitivity score (UT-SCC-14; [12]): 20.6 ± 0.78 DSS
drug sensitivity score (UT-SCC-14; [13]): 23.7 ± 2.6 DSS
drug sensitivity score (UT-SCC-24B; [9]): 22.3 ± 0.72 DSS
drug sensitivity score (UT-SCC-24B; [10]): 22.9 ± 1.3 DSS
drug sensitivity score (UT-SCC-24B; [11]): 21.7 ± 0.58 DSS
drug sensitivity score (UT-SCC-24B; [12]): 19.4 ± 0.7 DSS
drug sensitivity score (UT-SCC-24B; [13]): 21.6 ± 0.49 DSS
drug sensitivity score (UT-SCC-28 [2]; [9]): 18.7 ± 3.2 DSS
drug sensitivity score (UT-SCC-28 [2]; [10]): 18.7 ± 1.8 DSS
drug sensitivity score (UT-SCC-28 [2]; [11]): 18.1 ± 1.6 DSS
drug sensitivity score (UT-SCC-28 [2]; [13]): 16.8 ± 0.21 DSS
drug sensitivity score (UT-SCC-40; [9]): 27.3 ± 0.47 DSS
drug sensitivity score (UT-SCC-40; [10]): 21.5 ± 0.32 DSS
drug sensitivity score (UT-SCC-40; [11]): 26.4 ± 0.84 DSS
drug sensitivity score (UT-SCC-40; [12]): 19.2 ± 1.1 DSS
drug sensitivity score (UT-SCC-40; [13]): 20.6 ± 0.46 DSS
drug sensitivity score (UT-SCC-42A [3]; [9]): 20.8 ± 3.1 DSS
drug sensitivity score (UT-SCC-42A [3]; [10]): 18.2 ± 0.85 DSS
drug sensitivity score (UT-SCC-42A [3]; [11]): 21.1 ± 2.2 DSS
drug sensitivity score (UT-SCC-42A [3]; [12]): 18.6 ± 0.96 DSS
drug sensitivity score (UT-SCC-42A [3]; [13]): 21.6 ± 2.3 DSS
drug sensitivity score (UT-SCC-42B; [9]): 24.7 ± 1.2 DSS
drug sensitivity score (UT-SCC-42B; [11]): 18.3 ± 1.2 DSS
drug sensitivity score (UT-SCC-42B; [12]): 14.1 ± 1.2 DSS
drug sensitivity score (UT-SCC-42B; [13]): 15.2 ± 0.4 DSS
drug sensitivity score (UT-SCC-44; [9]): 15.7 ± 2.2 DSS
drug sensitivity score (UT-SCC-44; [10]): 13.9 ± 1.6 DSS
drug sensitivity score (UT-SCC-44; [11]): 14 ± 1.9 DSS
drug sensitivity score (UT-SCC-44; [12]): 14.2 ± 2 DSS
drug sensitivity score (UT-SCC-44; [13]): 12.4 ± 0.21 DSS
drug sensitivity score (UT-SCC-73; [9]): 24.13 ± 0.21 DSS
drug sensitivity score (UT-SCC-73; [10]): 23.1 ± 3.8 DSS
drug sensitivity score (UT-SCC-73; [11]): 23.83 ± 0.15 DSS
drug sensitivity score (UT-SCC-73; [12]): 21.6 ± 0.47 DSS
drug sensitivity score (UT-SCC-73; [13]): 22.2 ± 0.8 DSS
drug sensitivity score (UT-SCC-81 [4]; [9]): 28.53 ± 0.15 DSS
drug sensitivity score (UT-SCC-81 [4]; [10]): 21.9 ± 1.9 DSS
drug sensitivity score (UT-SCC-81 [4]; [11]): 26.8 ± 0.32 DSS
drug sensitivity score (UT-SCC-81 [4]; [12]): 21 ± 0.1 DSS
drug sensitivity score (UT-SCC-81 [4]; [13]): 22.6 ± 1.5 DSS
drug sensitivity score (UT-SCC-8; [9]): 27.5 ± 1 DSS
drug sensitivity score (UT-SCC-8; [10]): 24.1 ± 4.4 DSS
drug sensitivity score (UT-SCC-8; [11]): 24.5 ± 0.1 DSS
drug sensitivity score (UT-SCC-8; [12]): 23.7 ± 0.44 DSS
drug sensitivity score (UT-SCC-8; [13]): 25 ± 0.83 DSS
